# Results from patent US8048986B2, “Reversed mammalian protein-protein interaction trap” (Vlaams Interuniversitair Instituut Voor Biotechnologie VZW, priority 2001, dated 2011).
# “Also recorded” adds a separate entry of the source.
# Molecular target: ALK4-FKBP12 interaction (Homo sapiens, UniProt P62942)
# Experiment: reversed interaction trap: pSELFFY-ALK4 bait with inhibitory prey pMET7-fPPD1-FKBP12, rPAP1-luciferase reporter in HEK293T cells
# Format: cell-based
# Settings: pSELFFY-ALK4 + pMET7-fPPD1-FKBP12 (1000, 500, 250 ng), FK506 pretreatment, Epo 5 ng/ml after four hours, normalized with irrelevant bait pSELFFY-EpoR, FIG. 6
# Experimental: HEK293T cells (six-well plate) were transfected with a combination of the following plasmids:
# A representative experiment of triplicate luciferase measurements is shown. The values have been normalized using background luciferase activities (fold induction) and by using an irrelevant bait construct (pSELFFY-EpoR, exp. 4-6) to correct for toxicity of FK506 on the cells.
# Two days after transfection, cells were seeded in black well plates (approximately 10,000 cells/well) and pretreated with various concentrations of FK506 as indicated. Epo was added after four hours to the treated cells (5 ng/ml). Twenty-four hours after stimulation, luciferase and beta-galactosidase activities were measured.
# The values have been normalized using background luciferase activities (fold induction) and by using an irrelevant bait construct (pSELFFY-EpoR, exp. 4-6) to correct for toxicity of FK506 on the cells.
# ALK4-FKBP12 interaction, sequence (P62942 2-107): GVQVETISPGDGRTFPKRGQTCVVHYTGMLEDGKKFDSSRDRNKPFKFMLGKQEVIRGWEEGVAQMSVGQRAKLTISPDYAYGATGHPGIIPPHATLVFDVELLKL
# ALK4-FKBP12 interaction, sequence (P18031 1-276 partner limits assumed): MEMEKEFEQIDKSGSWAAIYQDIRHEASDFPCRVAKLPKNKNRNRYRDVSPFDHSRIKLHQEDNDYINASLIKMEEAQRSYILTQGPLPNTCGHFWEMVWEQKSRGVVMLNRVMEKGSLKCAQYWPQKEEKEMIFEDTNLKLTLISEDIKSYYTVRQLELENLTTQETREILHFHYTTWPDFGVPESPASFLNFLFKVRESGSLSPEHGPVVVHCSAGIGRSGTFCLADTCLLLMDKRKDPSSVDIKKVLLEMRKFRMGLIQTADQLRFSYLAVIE
smiles,measurement,value
C=CC[C@@H]1/C=C(\C)C[C@H](C)C[C@H](OC)[C@H]2O[C@@](O)(C(=O)C(=O)N3CCCC[C@H]3C(=O)O[C@H](/C(C)=C/[C@@H]3CC[C@@H](O)[C@H](OC)C3)[C@H](C)[C@@H](O)CC1=O)[C@H](C)C[C@@H]2OC [FK506],"restoration of signaling via the pSELFFY-ALK4 bait / block of inhibition by the bait-prey interaction (luciferase activity, fold induction)","blocked, in a dose dependent manner; also recorded: partially restores signaling"
